Laboratory results taken from PubChem BioAssay AID1117330.
Calls of active or inactive are those of the source. The rule behind the calls is not given here.

What follows are molecules tested on HT-29 viability, CellTiter-Glo luminescence (assay: cytotoxicity toward HT-29 cells – cell-based, CellTiter-Glo luminescence, IC50, dose response (AID 1117330)).

SMILES	IC50
CC(=O)[O][Hg][c]1ccccc1	799 nM
Cc1ccc([N+](=O)[O-])[c]2c1[O][Hg]2	1440 nM
O=C(O)C1(C(=O)O)CCC1.[NH2-].[NH2-].[Pt+2]	> 20000 nM (inactive)
OCCN1CCN(CC/C=C2/c3ccccc3Sc3ccc(C(F)(F)F)cc32)CC1	1810 nM
O=C1[O][Bi][O]c2ccccc21	> 20000 nM (inactive)
CCCCCCCCCCCCCC[N+](C)(C)C	1320 nM
